Measured values as given in ChEMBL document CHEMBL3046559, “Sterile oat (Avena sterilis L.) cross-resistance profile to ACCase-inhibiting herbicides in Greece” (2012).

Assays:
Format in all cases: functional
[1] = tested on: Avena sterilis; test: Herbicidal activity against Avena sterilis accession P06S assessed as induction of weed mortality
[2] = tested on: Avena sterilis; test: Herbicidal activity against Avena sterilis accession P19S assessed as weed survival at 1/8 times field recommended herbicide dose
[3] = tested on: Avena sterilis; test: Herbicidal activity against Avena sterilis accession P13S assessed as induction of weed mortality
[4] = tested on: Avena sterilis; test: Herbicidal activity against Avena sterilis accession P21S assessed as weed survival at 1/4 times field recommended herbicide dose
[5] = tested on: Avena sterilis; test: Herbicidal activity against Avena sterilis accession P11 assessed as weed survival at 8 times field recommended herbicide dose
[6] = tested on: Avena sterilis; test: Herbicidal activity against Avena sterilis accession P11 assessed as weed survival at 1 times field recommended herbicide dose
[7] = tested on: Avena sterilis; test: Herbicidal activity against Avena sterilis accession P01 assessed as induction of weed mortality
[8] = tested on: Avena sterilis; test: Herbicidal activity against Avena sterilis accession P21S assessed as weed survival at 1/8 times field recommended herbicide dose
[9] = tested on: Avena sterilis; test: Herbicidal activity against Avena sterilis accession P18 assessed as weed survival at 16 times field recommended herbicide dose
[10] = tested on: Avena sterilis; test: Herbicidal activity against Avena sterilis accession P16 assessed as induction of weed mortality
[11] = tested on: Avena sterilis; test: Herbicidal activity against Avena sterilis accession P03 assessed as weed survival at 8 times field recommended herbicide dose
[12] = tested on: Avena sterilis; test: Herbicidal activity against Avena sterilis accession P18 assessed as weed survival at 1 times field recommended herbicide dose
[13] = tested on: Avena sterilis; test: Herbicidal activity against Avena sterilis accession P04 assessed as weed survival at 4 times field recommended herbicide dose
[14] = tested on: Avena sterilis; test: Herbicidal activity against Avena sterilis accession P05 assessed as weed survival at 8 times field recommended herbicide dose
[15] = tested on: Avena sterilis; test: Herbicidal activity against Avena sterilis accession P05 assessed as weed survival at 16 times field recommended herbicide dose
[16] = tested on: Avena sterilis; test: Herbicidal activity against Avena sterilis accession P07 assessed as weed survival at 1 times field recommended herbicide dose
[17] = tested on: Avena sterilis; test: Herbicidal activity against Avena sterilis accession P12 assessed as induction of weed mortality
[18] = tested on: Avena sterilis; test: Herbicidal activity against Avena sterilis accession P10S assessed as induction of weed mortality
[19] = tested on: Avena sterilis; test: Herbicidal activity against Avena sterilis accession P11 assessed as weed survival at 16 times field recommended herbicide dose
[20] = tested on: Avena sterilis; test: Herbicidal activity against Avena sterilis accession P11 assessed as induction of weed mortality
[21] = tested on: Avena sterilis; test: Herbicidal activity against Avena sterilis accession P21S assessed as weed survival at 1/16 times field recommended herbicide dose
[22] = tested on: Avena sterilis; test: Herbicidal activity against Avena sterilis accession P02 assessed as weed survival at 32 times field recommended herbicide dose
[23] = tested on: Avena sterilis; test: Herbicidal activity against Avena sterilis accession P22 assessed as weed survival at 16 times field recommended herbicide dose
[24] = tested on: Avena sterilis; test: Herbicidal activity against Avena sterilis accession P22 assessed as weed survival at 32 times field recommended herbicide dose
[25] = tested on: Avena sterilis; test: Herbicidal activity against Avena sterilis accession P07 assessed as weed survival at 32 times field recommended herbicide dose
[26] = tested on: Avena sterilis; test: Herbicidal activity against Avena sterilis accession P04 assessed as induction of weed mortality
[27] = tested on: Avena sterilis; test: Herbicidal activity against Avena sterilis accession P07 assessed as induction of weed mortality
[28] = tested on: Avena sterilis; test: Herbicidal activity against Avena sterilis accession P11 assessed as weed survival at 32 times field recommended herbicide dose
[29] = tested on: Avena sterilis; test: Herbicidal activity against Avena sterilis accession P01 assessed as weed survival at 4 times field recommended herbicide dose
[30] = tested on: Avena sterilis; test: Herbicidal activity against Avena sterilis accession P05 assessed as induction of weed mortality
[31] = tested on: Avena sterilis; test: Herbicidal activity against Avena sterilis accession P05 assessed as weed survival at 1 times field recommended herbicide dose
[32] = tested on: Avena sterilis; test: Herbicidal activity against Avena sterilis accession P07 assessed as weed survival at 16 times field recommended herbicide dose
[33] = tested on: Avena sterilis; test: Herbicidal activity against Avena sterilis accession P16 assessed as weed survival at 8 times field recommended herbicide dose
[34] = tested on: Avena sterilis; test: Herbicidal activity against Avena sterilis accession P01 assessed as weed survival at 32 times field recommended herbicide dose
[35] = tested on: Avena sterilis; test: Herbicidal activity against Avena sterilis accession P06S assessed as weed survival at 1/32 times field recommended herbicide dose
[36] = tested on: Avena sterilis; test: Herbicidal activity against Avena sterilis accession P16 assessed as weed survival at 1 times field recommended herbicide dose
[37] = tested on: Avena sterilis; test: Herbicidal activity against Avena sterilis accession P14 assessed as induction of weed mortality
[38] = tested on: Avena sterilis; test: Herbicidal activity against Avena sterilis accession P07 assessed as weed survival at 4 times field recommended herbicide dose
[39] = tested on: Avena sterilis; test: Herbicidal activity against Avena sterilis accession P22 assessed as weed survival at 4 times field recommended herbicide dose
[40] = tested on: Avena sterilis; test: Herbicidal activity against Avena sterilis accession P12 assessed as weed survival at 1 times field recommended herbicide dose
[41] = tested on: Avena sterilis; test: Herbicidal activity against Avena sterilis accession P22 assessed as weed survival at 8 times field recommended herbicide dose
[42] = tested on: Avena sterilis; test: Herbicidal activity against Avena sterilis accession P05 assessed as weed survival at 32 times field recommended herbicide dose
[43] = tested on: Avena sterilis; test: Herbicidal activity against Avena sterilis accession P16 assessed as weed survival at 4 times field recommended herbicide dose
[44] = tested on: Avena sterilis; test: Herbicidal activity against Avena sterilis accession P04 assessed as weed survival at 16 times field recommended herbicide dose
[45] = tested on: Avena sterilis; test: Herbicidal activity against Avena sterilis accession P17 assessed as weed survival at 8 times field recommended herbicide dose
[46] = tested on: Avena sterilis; test: Herbicidal activity against Avena sterilis accession P21S assessed as induction of weed mortality
[47] = tested on: Avena sterilis; test: Herbicidal activity against Avena sterilis accession P12 assessed as weed survival at 8 times field recommended herbicide dose
[48] = tested on: Avena sterilis; test: Herbicidal activity against Avena sterilis accession P18 assessed as induction of weed mortality
[49] = tested on: Avena sterilis; test: Herbicidal activity against Avena sterilis accession P06S assessed as weed survival at 1/8 times field recommended herbicide dose
[50] = tested on: Avena sterilis; test: Herbicidal activity against Avena sterilis accession P13S assessed as weed survival at 1/4 times field recommended herbicide dose
[51] = tested on: Avena sterilis; test: Herbicidal activity against Avena sterilis accession P14 assessed as weed survival at 8 times field recommended herbicide dose
[52] = tested on: Avena sterilis; test: Herbicidal activity against Avena sterilis accession P22 assessed as weed survival at 1 times field recommended herbicide dose
[53] = tested on: Avena sterilis; test: Herbicidal activity against Avena sterilis accession P09 assessed as induction of weed mortality
[54] = tested on: Avena sterilis; test: Herbicidal activity against Avena sterilis accession P08 assessed as weed survival at 8 times field recommended herbicide dose
[55] = tested on: Avena sterilis; test: Herbicidal activity against Avena sterilis accession P17 assessed as weed survival at 16 times field recommended herbicide dose
[56] = tested on: Avena sterilis; test: Herbicidal activity against Avena sterilis accession P02 assessed as weed survival at 8 times field recommended herbicide dose
[57] = tested on: Avena sterilis; test: Herbicidal activity against Avena sterilis accession P10S assessed as weed survival at 1/4 times field recommended herbicide dose
[58] = tested on: Avena sterilis; test: Herbicidal activity against Avena sterilis accession P10S assessed as weed survival at 1 times field recommended herbicide dose
[59] = tested on: Avena sterilis; test: Herbicidal activity against Avena sterilis accession P15 assessed as weed survival at 1 times field recommended herbicide dose

CCO/N=C(\CC)C1=C(O)CC(c2c(C)cc(C)cc2C)CC1=O (configuration not stated) [TRALKOXYDIM]
GR50 [1]: 32 gAi/ha | Survival [2]: 93% | GR50 [3]: 34 gAi/ha | Survival [4]: 33% | Survival [5]: 0% | Survival [6]: 17% | GR50 [7]: 766 gAi/ha | Survival [8]: 77% | Survival [9]: 0% | GR50 [10]: 907 gAi/ha | Survival [11]: 20% | Survival [12]: 20% | Survival [13]: 77% | Survival [14]: 10% | Survival [15]: 0% | Survival [16]: 23% | GR50 [17]: <400 gAi/ha | GR50 [18]: 29 gAi/ha | Survival [19]: 0% | GR50 [20]: <400 gAi/ha | Survival [21]: 80% | Survival [22]: 0% | Survival [23]: 20% | Survival [24]: 0% | Survival [25]: 0% | GR50 [26]: 7591 gAi/ha | GR50 [27]: <400 gAi/ha | Survival [28]: 0% | Survival [29]: 43% | GR50 [30]: <400 gAi/ha | Survival [31]: 40% | Survival [32]: 0% | Survival [33]: 17% | Survival [34]: 0% | Survival [35]: 80% | Survival [36]: 77% | GR50 [37]: <400 gAi/ha | Survival [38]: 20% | Survival [39]: 40% | Survival [40]: 13% | Survival [41]: 20% | Survival [42]: 0% | Survival [43]: 30% | Survival [44]: 60% | Survival [45]: 7% | GR50 [46]: 84 gAi/ha | Survival [47]: 0% | GR50 [48]: <400 gAi/ha | Survival [49]: 30% | Survival [50]: 20% | Survival [51]: 0% | Survival [52]: 57% | GR50 [53]: 532 gAi/ha | Survival [54]: 17% | Survival [55]: 0% | Survival [56]: 20% | Survival [57]: 20% | Survival [58]: 0% | Survival [59]: 70%

CCc1cc(C)cc(CC)c1-c1c(OC(=O)C(C)(C)C)n2n(c1=O)CCOCC2 [PINOXADEN]
GR50 [1]: 3.5 gAi/ha | Survival [2]: 50% | GR50 [3]: 4.1 gAi/ha | Survival [4]: 20% | Survival [5]: 0% | Survival [6]: 0% | GR50 [7]: <40 gAi/ha | Survival [8]: 57% | Survival [9]: 0% | GR50 [10]: <40 gAi/ha | Survival [11]: 0% | Survival [12]: 0% | Survival [13]: 20% | Survival [14]: 0% | Survival [15]: 0% | Survival [16]: 0% | GR50 [17]: <40 gAi/ha | GR50 [18]: 4.1 gAi/ha | Survival [19]: 0% | GR50 [20]: <40 gAi/ha | Survival [21]: 97% | Survival [22]: 0% | Survival [23]: 0% | Survival [24]: 0% | Survival [25]: 0% | GR50 [26]: 74 gAi/ha | GR50 [27]: <40 gAi/ha | Survival [28]: 0% | Survival [29]: 17% | GR50 [30]: <40 gAi/ha | Survival [31]: 20% | Survival [32]: 0% | Survival [33]: 0% | Survival [34]: 0% | Survival [35]: 97% | Survival [36]: 0% | GR50 [37]: <40 gAi/ha | Survival [38]: 0% | Survival [39]: 0% | Survival [40]: 0% | Survival [41]: 0% | Survival [42]: 0% | Survival [43]: 0% | Survival [44]: 0% | Survival [45]: 0% | GR50 [46]: 5.8 gAi/ha | Survival [47]: 0% | GR50 [48]: <40 gAi/ha | Survival [49]: 20% | Survival [50]: 3% | Survival [51]: 0% | Survival [52]: 20% | GR50 [53]: <40 gAi/ha | Survival [54]: 0% | Survival [55]: 0% | Survival [56]: 0% | Survival [57]: 0% | Survival [58]: 0% | Survival [59]: 20%

CCOC(=O)[C@@H](C)Oc1ccc(Oc2nc3ccc(Cl)cc3o2)cc1 [FENOXAPROP-P-ETHYL]
GR50 [1]: 18 gAi/ha | Survival [2]: 87% | GR50 [3]: 18 gAi/ha | Survival [4]: 43% | Survival [5]: 77% | Survival [6]: 97% | GR50 [7]: 600 gAi/ha | Survival [8]: 80% | Survival [9]: 73% | GR50 [10]: 505 gAi/ha | Survival [11]: 60% | Survival [12]: 100% | Survival [13]: 80% | Survival [14]: 20% | Survival [15]: 20% | Survival [16]: 97% | GR50 [17]: 1290 gAi/ha | GR50 [18]: 16 gAi/ha | Survival [19]: 57% | GR50 [20]: 2261 gAi/ha | Survival [21]: 83% | Survival [22]: 40% | Survival [23]: 0% | Survival [24]: 0% | Survival [25]: 70% | GR50 [26]: 913 gAi/ha | GR50 [27]: >2640 gAi/ha | Survival [28]: 50% | Survival [29]: 73% | GR50 [30]: 181 gAi/ha | Survival [31]: 77% | Survival [32]: 80% | Survival [33]: 20% | Survival [34]: 20% | Survival [35]: 97% | Survival [36]: 93% | GR50 [37]: 155 gAi/ha | Survival [38]: 77% | Survival [39]: 40% | Survival [40]: 100% | Survival [41]: 7% | Survival [42]: 0% | Survival [43]: 90% | Survival [44]: 37% | Survival [45]: 20% | GR50 [46]: 18 gAi/ha | Survival [47]: 53% | GR50 [48]: >2640 gAi/ha | Survival [49]: 80% | Survival [50]: 43% | Survival [51]: 27% | Survival [52]: 87% | GR50 [53]: 2121 gAi/ha | Survival [54]: 63% | Survival [55]: 20% | Survival [56]: 93% | Survival [57]: 30% | Survival [58]: 0% | Survival [59]: 100%
